According to patent publication US20250270191A1, “QUINOLONE BCL6 BIFUNCTIONAL DEGRADERS” (Treeline Biosciences, Inc., priority 2022, published 2025):

Molecular target: T1, Human BCL6 protein (N-terminal HiBiT tagged BCL6 in HT1080 cells) (Homo sapiens, UniProt P41182+Q96SW2)
T1 construct: Human BCL6 protein coding open reading frame; expressed in transfected cells; host or cells: HT1080 (ATCC CCL-121), stably transduced with lentivirus pLV-UBC-N-HiBiT-BCL6-PGK-puro
Assay: HiBiT based BCL6 degradation assay
Format: cell-based
Settings: HT1080 cells expressing N-terminal HiBiT tagged BCL6; 5 hours incubation; BCL6 degradation normalized with DMSO control
Description: Human BCL6 protein coding open reading frame fused with N-terminal HiBiT coding sequence was synthesized from Integrated DNA Technologies (IDT). Next, the N-HiBiT-BCL6 sequence was cloned into pLV-UBC-PGK-Puro, a lentivirus plasmid purchased from Vectorbuilder, to generate pLV-UBC-N-HiBiT-BCL6-PGK-puro. Lentiviral particles were generated from Lenti-X™ 293T cells (Clontech) by co-transfection of pLV-UBC-N-HiBiT-BCL6-PGK-puro plasmids and lentiviral packaging plasmid mix (Cellecta). HT1080 [HT1080] (ATCC CCL-121) cells were infected with the lentivirus, and HT1080 cells stably integrated with the lentiviral vectors were established by incubation with 1 μg/mL puromycin (Thermofisher).
HT1080 cells expressing N-terminal HiBiT tagged BCL6 were dispensed into a 384-well plate pre-spotted with compounds at varying concentrations. Five thousand cells were seeded into each well in 40 μL of RPMI 1640 media plus 10% Fetal Bovine Serum (10082-147, Thermofisher). After 5 hours of incubation at 37° C. with 5% CO2, 30 μL of the NANO-GLO® HiBiT Lytic Detection System working solution (Promega) was added to each well and incubated at room temperature for 15 min. After incubation, luminescence was read on a PHERAstar FSX Plate Reader (BMG). BCL6 degradation at each indicated concentration was normalized with DMSO control. The BCL6 degradation curves were plotted using a four-parameter logistic model.

| SMILES | Ymin (5 hr) |
| --- | --- |
| CNC(=O)COc1cc2cc(Nc3nc(NC[C@H]4CC[C@@H](Nc5ccc6c(C7CCC(=O)NC7=O)nn(C)c6c5)CC4)ncc3Cl)ccc2n(C)c1=O (some centres unmarked) [Compound 289a, 2-((6-((5-chloro-2-((((1s,4s)-4-((3-(2,6-dioxopiperidin-3-yl)-1-methyl-1H-indazol-6-yl)amino)cyclohexyl)methyl)amino)pyrimidin-4-yl)amino)-1-methyl-2-oxo-1,2-dihydroquinolin-3-yl)oxy)-N-methylacetamide] | + (Ymin > 70%) |
| CNC(=O)COc1cc2cc(Nc3nc(NC[C@H]4CC[C@H](Nc5ccc6c(C7CCC(=O)NC7=O)nn(C)c6c5)CC4)ncc3Cl)ccc2n(C)c1=O (some centres unmarked) [Compound 289b, 2-((6-((5-chloro-2-((((1r,4r)-4-((3-(2,6-dioxopiperidin-3-yl)-1-methyl-1H-indazol-6-yl)amino)cyclohexyl)methyl)amino)pyrimidin-4-yl)amino)-1-methyl-2-oxo-1,2-dihydroquinolin-3-yl)oxy)-N-methylacetamide] | ++++ (Ymin ≤ 25%) |
| CNC(=O)COc1cc2cc(Nc3nc(N4CCC(C5CN(c6ccc7c(C8CCC(=O)NC8=O)nn(C)c7c6)C5)CC4)ncc3Cl)ccc2n(C)c1=O (centres unmarked) [Compound 292, 2-((6-((5-chloro-2-(4-(1-(3-(2,6-dioxopiperidin-3-yl)-1-methyl-1H-indazol-6-yl)azetidin-3-yl)piperidin-1-yl)pyrimidin-4-yl)amino)-1-methyl-2-oxo-1,2-dihydroquinolin-3-yl)oxy)-N-methylacetamide] | +++ (25% < Ymin ≤ 50%) |
| CNC(=O)COc1cc2cc(Nc3nc(NC[C@H]4CC[C@@H](CNc5ccc6c(C7CCC(=O)NC7=O)nn(C)c6c5)CC4)ncc3Cl)ccc2n(C)c1=O (some centres unmarked) [Compound 293a, 2-((6-((5-chloro-2-((((1s,4s)-4-(((3-(2,6-dioxopiperidin-3-yl)-1-methyl-1H-indazol-6-yl)amino)methyl)cyclohexyl)methyl)amino)pyrimidin-4-yl)amino)-1-methyl-2-oxo-1,2-dihydroquinolin-3-yl)oxy)-N-methylacetamide] | +++ (25% < Ymin ≤ 50%) |
| CNC(=O)COc1cc2cc(Nc3nc(NC[C@H]4CC[C@H](CNc5ccc6c(C7CCC(=O)NC7=O)nn(C)c6c5)CC4)ncc3Cl)ccc2n(C)c1=O (some centres unmarked) [Compound 293b, 2-((6-((5-chloro-2-((((1r,4r)-4-(((3-(2,6-dioxopiperidin-3-yl)-1-methyl-1H-indazol-6-yl)amino)methyl)cyclohexyl)methyl)amino)pyrimidin-4-yl)amino)-1-methyl-2-oxo-1,2-dihydroquinolin-3-yl)oxy)-N-methylacetamide] | ++ (50% < Ymin ≤ 70%) |
| CNC(=O)COc1cc2cc(Nc3nc(NC[C@H]4CCCN(c5ccc6c(C7CCC(=O)NC7=O)nn(C)c6c5)C4)ncc3Cl)ccc2n(C)c1=O (stereo partly drawn) [Compound 295a, 2-((6-((5-chloro-2-((((3R)-1-(3-(2,6-dioxopiperidin-3-yl)-1-methyl-1H-indazol-6-yl)piperidin-3-yl)methyl)amino)pyrimidin-4-yl)amino)-1-methyl-2-oxo-1,2-dihydroquinolin-3-yl)oxy)-N-methylacetamide] | ++ (50% < Ymin ≤ 70%) |
| CNC(=O)COc1cc2cc(Nc3nc(NC[C@@H]4CCCN(c5ccc6c(C7CCC(=O)NC7=O)nn(C)c6c5)C4)ncc3Cl)ccc2n(C)c1=O (stereo partly drawn) [Compound 295b, 2-((6-((5-chloro-2-((((3S)-1-(3-(2,6-dioxopiperidin-3-yl)-1-methyl-1H-indazol-6-yl)piperidin-3-yl)methyl)amino)pyrimidin-4-yl)amino)-1-methyl-2-oxo-1,2-dihydroquinolin-3-yl)oxy)-N-methylacetamide] | ++ (50% < Ymin ≤ 70%) |
| CNC(=O)COc1cc2cc(Nc3nc(N4CCC(CCCOc5ccc6c(C7CCC(=O)NC7=O)nn(C)c6c5)CC4)ncc3Cl)ccc2n(C)c1=O (centres unmarked) [Compound 296, 2-((6-((5-chloro-2-(4-(3-((3-(2,6-dioxopiperidin-3-yl)-1-methyl-1H-indazol-6-yl)oxy)propyl)piperidin-1-yl)pyrimidin-4-yl)amino)-1-methyl-2-oxo-1,2-dihydroquinolin-3-yl)oxy)-N-methylacetamide] | +++ (25% < Ymin ≤ 50%) |
| CNC(=O)COc1cc2cc(Nc3nc(NC[C@H]4CC[C@@H](CNc5cccc6c(C7CCC(=O)NC7=O)nn(C)c56)CC4)ncc3Cl)ccc2n(C)c1=O (some centres unmarked) [Compound 297a, 2-((6-((5-chloro-2-((((1s,4s)-4-(((3-(2,6-dioxopiperidin-3-yl)-1-methyl-1H-indazol-7-yl)amino)methyl)cyclohexyl)methyl)amino)pyrimidin-4-yl)amino)-1-methyl-2-oxo-1,2-dihydroquinolin-3-yl)oxy)-N-methylacetamide] | ++ (50% < Ymin ≤ 70%) |
| CNC(=O)COc1cc2cc(Nc3nc(NC[C@H]4CC[C@H](CNc5cccc6c(C7CCC(=O)NC7=O)nn(C)c56)CC4)ncc3Cl)ccc2n(C)c1=O (some centres unmarked) [Compound 297b, 2-((6-((5-chloro-2-((((1r,4r)-4-(((3-(2,6-dioxopiperidin-3-yl)-1-methyl-1H-indazol-7-yl)amino)methyl)cyclohexyl)methyl)amino)pyrimidin-4-yl)amino)-1-methyl-2-oxo-1,2-dihydroquinolin-3-yl)oxy)-N-methylacetamide] | ++ (50% < Ymin ≤ 70%) |
| CNC(=O)COc1cc2cc(Nc3nc(N4CCN(CC5CCC6(CC5)CN(c5ccc7c(C8CCC(=O)NC8=O)nn(C)c7c5)C6)CC4)ncc3Cl)ccc2n(C(C)C)c1=O (centres unmarked) [Compound 298, 2-((6-((5-chloro-2-(4-((2-(3-(2,6-dioxopiperidin-3-yl)-1-methyl-1H-indazol-6-yl)-2-azaspiro[3.5]nonan-7-yl)methyl)piperazin-1-yl)pyrimidin-4-yl)amino)-1-isopropyl-2-oxo-1,2-dihydroquinolin-3-yl)oxy)-N-methylacetamide] | +++ (25% < Ymin ≤ 50%) |
| CNC(=O)COc1cc2cc(Nc3nc(N4CCC[C@H](CN(C)c5cccc6c(C7CCC(=O)NC7=O)nn(C)c56)C4)ncc3Cl)ccc2n(C)c1=O (stereo partly drawn) [Compound 299a, 2-((6-((5-chloro-2-((3R)-3-(((3-(2,6-dioxopiperidin-3-yl)-1-methyl-1H-indazol-7-yl)(methyl)amino)methyl)piperidin-1-yl)pyrimidin-4-yl)amino)-1-methyl-2-oxo-1,2-dihydroquinolin-3-yl)oxy)-N-methylacetamide] | +++ (25% < Ymin ≤ 50%) |
| CNC(=O)COc1cc2cc(Nc3nc(N4CCC[C@@H]4CNc4cccc5c(C6CCC(=O)NC6=O)nn(C)c45)ncc3Cl)ccc2n(C)c1=O (stereo partly drawn) [Compound 300a, 2-((6-((5-chloro-2-((2R)-2-(((3-(2,6-dioxopiperidin-3-yl)-1-methyl-1H-indazol-7-yl)amino)methyl)pyrrolidin-1-yl)pyrimidin-4-yl)amino)-1-methyl-2-oxo-1,2-dihydroquinolin-3-yl)oxy)-N-methylacetamide] | ++ (50% < Ymin ≤ 70%) |
| CNC(=O)COc1cc2cc(Nc3nc(N4CCC[C@H]4CNc4cccc5c(C6CCC(=O)NC6=O)nn(C)c45)ncc3Cl)ccc2n(C)c1=O (stereo partly drawn) [Compound 300b, 2-((6-((5-chloro-2-((2S)-2-(((3-(2,6-dioxopiperidin-3-yl)-1-methyl-1H-indazol-7-yl)amino)methyl)pyrrolidin-1-yl)pyrimidin-4-yl)amino)-1-methyl-2-oxo-1,2-dihydroquinolin-3-yl)oxy)-N-methylacetamide] | + (Ymin > 70%) |
| CNC(=O)COc1cc2cc(Nc3nc(N4CCC[C@H](COc5cccc6c(C7CCC(=O)NC7=O)nn(C)c56)C4)ncc3Cl)ccc2n(C)c1=O (stereo partly drawn) [Compound 301a, 2-((6-((5-chloro-2-((3S)-3-(((3-(2,6-dioxopiperidin-3-yl)-1-methyl-1H-indazol-7-yl)oxy)methyl)piperidin-1-yl)pyrimidin-4-yl)amino)-1-methyl-2-oxo-1,2-dihydroquinolin-3-yl)oxy)-N-methylacetamide] | ++ (50% < Ymin ≤ 70%) |
| CNC(=O)COc1cc2cc(Nc3nc(N4CCC[C@@H](COc5cccc6c(C7CCC(=O)NC7=O)nn(C)c56)C4)ncc3Cl)ccc2n(C)c1=O (stereo partly drawn) [Compound 301b, 2-((6-((5-chloro-2-((3R)-3-(((3-(2,6-dioxopiperidin-3-yl)-1-methyl-1H-indazol-7-yl)oxy)methyl)piperidin-1-yl)pyrimidin-4-yl)amino)-1-methyl-2-oxo-1,2-dihydroquinolin-3-yl)oxy)-N-methylacetamide] | ++ (50% < Ymin ≤ 70%) |
| CNC(=O)COc1cc2cc(Nc3nc(N4CCC[C@H](COc5ccc6c(C7CCC(=O)NC7=O)nn(C)c6c5)C4)ncc3Cl)ccc2n(C)c1=O (stereo partly drawn) [Compound 302a, 2-((6-((5-chloro-2-((3S)-3-(((3-(2,6-dioxopiperidin-3-yl)-1-methyl-1H-indazol-6-yl)oxy)methyl)piperidin-1-yl)pyrimidin-4-yl)amino)-1-methyl-2-oxo-1,2-dihydroquinolin-3-yl)oxy)-N-methylacetamide] | ++ (50% < Ymin ≤ 70%) |
